Data taken from publication PMC12203428, “Discovery of Clonixeril as a Sub-Femtomolar Modulator of the Human STING Receptor” (ACS Central Science, 2025).

Key:
[1] = system: hSTING phosphorylation (p-hSTING) in HEK293 cells; assay: HEK293 pSTING Western blot with 2′,3′-cGAMP; type: cell-based, human
Experimental: Since phosphorylation of Ser366 of hSTING is a necessary step to initiate recruitment, subsequent docking, and phosphorylation of IRF3, we investigated whether CXL would affect hSTING phosphorylation levels in cellulo. Thus, HEK293 cells were treated with varying concentrations of CXL (1fM-1nM) for one hour prior to 2 μM 2′,3′-cGAMP treatment for 90 min (Figure A) or 2 h (Figure C). An optimized dose of 2 μM 2′,3′-cGAMP was based on a dose–response study done for this experiment. A control group was treated with vehicle for 1 h followed by 2 μM 2′,3′-cGAMP for 1 or 2 h (Figure C) Total protein lysates were collected and analyzed by Western blotting using antibodies against p-hSTING, hSTING, and β-actin.
HEK293 cells were seeded at 700,000 cells per 60 mm plate confluency and treated 36 h later. […] Vehicle control group was treated with Escort IV reagent and DMSO for 1 h prior to 2 μM 2′,3′-cGAMP (InvivoGen) for 1 h and 30 min using Escort IV transfection reagent. DMSO concentration was kept constant across all treatment groups. Total cell lysates were collected and analyzed by Western blotting using antibodies against p-STING, STING, and β-actin. […] Data points were analyzed with a one-way ANOVA test using PRISM9 statistical analysis software (GraphPad). A level of p < 0.05 was considered statistically significant.

[2] = system: p-hSTING puncta in HEK293 cells; assay: HEK293 immunofluorescence of p-hSTING; type: cell-based, human
Experimental: STING undergoes condensed cis-oligomerization as part of its signal transduction pathway and punctate structure formation of p-hSTING in the perinuclear region is indicative of hSTING oligomerization. We had speculated that CXL might affect hSTING oligomerization. […] HEK293 cells were treated with either 10 aM or 1 pM CXL for 1 h followed by 2 μM 2′,3′-cGAMP for 90 min. Cells treated with vehicle control for 1 h and then 2 μM of 2′,3′-cGAMP for 90 min were used as a positive control. At a 1 pM concentration of CXL, both p-hSTING and punctate structure formation were diminished.
HEK293 cells were seeded into four-chambered slides (5,000 cells/well.) 36 h later, sample 1 was first treated with vehicle control for 1 h and then transfected with 2 μM 2′,3′-cGAMP (InvivoGen) using Escort IV transfection reagent (Sigma Aldrich) for 1 h and 30 min. Samples 2 and 3 were first transfected with 10 aM and 1 pM CXL, respectively, for 1 h, followed by 2 μM 2′,3′-cGAMP for 1 h and 30 min. […] DMSO concentration was kept constant across all treatment groups. Cells were fixed with 4% paraformaldehyde for 15 min and immunostained with p-STING antibody at 4 °C overnight with light agitation. The slides were incubated with Alexa 594 rabbit secondary antibody for 1 h at RT. Subsequently, the slides were stained with Phalloidin conjugated to FITC (488) for 30 min at RT, mounted with solution containing 4′,6′-diamidino-2-phenylindole (DAPI) and imaged on a Fluorescent Microscope.

[3] = system: hSTING oligomerization in HEK293S cells; assay: Clear native PAGE of hSTING oligomerization in HEK293S cells; type: cell-based, human; details: CXL 1 h, then 100 nM diABZI3 2 h
Experimental: To determine whether the results we observed in the DLS experiments could be recapitulated in cellulo, where full-length hSTING is present, we used HEK293T cells transfected with WT hSTING (referred to herein as HEK293S cells) to perform hSTING clear native PAGE experiments. […] Thus, HEK293S cells were harvested following treatment with 100 nM diABZI3 for 2 h, following a 1 h treatment of varying concentrations of CXL.
Invitrogen NativePAGE Sample Prep Kit Catalog number: BN2008, Invitrogen NativePAGE Running Buffer Kit Catalog number: BN2007 and Invitrogen NativePAGE 4 to 16%, Bis-Tris, 1.0 mm, Mini Protein Gels, 10 wells, (Cat. # BN1002BOX). Cells were harvested and CXL was added at varying concentrations for 1 h and followed by 2 h of diABZI3 at 100 nM. To the mammalian cells harvested in 1 mL cell culture, add 0.2 mL lysis buffer containing 10 mM HEPES, pH 7.5,150 mM NaCl, 5% glycerol, protease inhibitor cocktail, and 0.025% digitonin. Cells were lysed by sonicating for two rounds of 15 s each while cooling the sample on ice. Centrifuge the lysate at 20,000g for 10 min at 4 °C. Aliquot the supernatant into microcentrifuge tubes. To prepare the sample for loading a total volume of 20 μL NativePAGE including Sample Buffer (4×) 5 μLSTING supernatant, 14.5 μL and Ponceau S-dye: 0.5 μL. 1X NativePAGE Anode Buffer: Add 30 mL of 20X NativePAGE Running Buffer to 570 mL of deionized water. […]

[4] = system: hSTING CTD; assay: Differential scanning fluorimetry (thermal shift); type: binding, human; details: 200 μM
Text: Differential Scanning Fluorimetry – Thermal Shift Experiment
screening process for their potential to stabilize the active form of the STING molecule by binding to it. A TSA measures a protein's melting temperature (Tm), at which the protein is 50% denatured. The assay quantifies protein denaturation by measuring the increase in fluorescence of a dye that binds to hydrophobic residues exposed by unfolding of the protein.
Differential Scanning Fluorimetry (Thermal Shift) for Binders of STING.
Compounds selected (57) from computational virtual screening for analysis at 200 μM in the thermal shift assay are
shown here as green dots with blue diamond indicating the temperature range of denaturation. The red box indicates

[5] = system: IFN-β expression in HEK293 cells; assay: HEK293 real-time qPCR for IFN-β
Experimental: IFN-β expression levels were measured using real-time qPCR.

`Cc1c(Cl)cccc1Nc1ncccc1C(=O)OCC(O)CO` (stereo not drawn) [CXL, clonixeril] was tested, and the “Effect on hSTING phosphorylation, CXL prior to 2′,3′-cGAMP” value ([1]; CXL 1 fM-1 nM 1 h, then 2 μM 2′,3′-cGAMP) was “downregulated hSTING phosphorylation close to near basal cellular levels”, the “Effect on hSTING phosphorylation, 2′,3′-cGAMP prior to CXL” value ([1]; same concentration range) was “inhibitory activity was not observed” and the “p-hSTING and punctate structure formation” value ([2]; 1 pM CXL 1 h, then 2 μM 2′,3′-cGAMP 90 min) was “diminished”. For the same compound, the “2′,3′-cGAMP induced p-hSTING puncta formation in the perinuclear region” value ([2]; 10 aM CXL) was “may affect”, the “Levels of hSTING phosphorylation” value ([2]; 10 aM CXL) was “qualitatively unaffected” and the “Effect on hSTING oligomerization” value [3] was “reduces hSTING oligomerization at concentrations down to attomolar levels”. For the same compound, the Thermal shift [4] was “negative thermal shift”, the “Inhibition of IFN-b production” value ([5]; 1 fM, reviewer's reading of Figure 3D) was “about 75%” and the “Diminution of 2′,3′-cGAMP-induced expression of IFN-β” value ([5]; all CXL treatment groups 1 fM-1 nM, 1 h before 4 μM 2′,3′-cGAMP) was “more than 50%”.
